Settings: 101.3 kPa, Liquid, Vibrating tube method

CCOC(=O)C(=O)OCC [diethyl ethanedioate]
Settings	mass density [kg/m3]
278.15 K	1095.94
288.14 K	1084.24
298.15 K	1072.53
313.15 K	1054.92
328.15 K	1037.26
338.15 K	1025.42
348.15 K	1013.53
358.15 K	1001.6

Reference: the NIST ThermoML archive (doi:10.1016/j.jct.2013.05.024)
